Source: ChEMBL document CHEMBL4118141, “Design, synthesis and biological evaluation of novel hydrogen sulfide releasing capsaicin derivatives” (Bioorg Med Chem, 2018)
Calls of active or inactive are those of the source. The rule behind the calls is not given here.

Tests used:
Mus musculus [1] = assay: Antinociceptive activity in Kunming mouse model assessed as inhibition of acetic acid-induced writhes at 60 mg/kg, po pretreated for 30 mins followed by acetic acid challenge measured for 15 mins post acetic acid challenge; type: functional, organism-based
[2] = target: Transient receptor potential cation channel subfamily V member 1 (Homo sapiens) (UniProt Q8NER1); assay: Agonist activity at human TRPV1 expressed in HEK293 cells assessed as increase in calcium influx by measuring ratio of 340/380 nm excitatory wavelength at 10 uM treated for 2 mins by Fura-2AM dye-based fluorescence assay; type: cell-based
HeLa = assay: Antiproliferative activity against human HeLa cells after 48 hrs by MTT assay; type: functional, cell-based
K562 = assay: Antiproliferative activity against human K562 cells after 48 hrs by MTT assay; type: functional, cell-based; conditions: K562, 48 h
Mus musculus [3] = assay: Antinociceptive activity in capsaicin-induced nociception pain Kunming mouse model assessed as reduction in time spent in paw licking at 60 mg/kg, po pretreated for 30 mins followed by capsaicin challenge measured for 5 mins post capsaicin challenge; type: functional, organism-based
MCF7 = assay: Antiproliferative activity against human MCF7 cells after 48 hrs by MTT assay; type: functional, cell-based; conditions: MCF7, 48 h
Mus musculus [4] = assay: Ulcerogenic activity in Kunming mouse assessed as lesion in stomach at 30 mg/kg, po qd for 6 days measured on day 7 by microscopic analysis; type: toxicity, organism-based; conditions: in vivo, 144 h
[5] = Acute toxicity in po dosed CD rat measured for 7 days; type: organism-based; conditions: in vivo
Mus musculus [6] = assay: Antinociceptive activity in Kunming mouse model of thermal-induced nociception assessed as increase in latency to tail withdrawal at 60 mg/kg, po by tail flick test; type: functional, organism-based

Chain of Transient receptor potential cation channel subfamily V member 1 (Homo sapiens) (Q8NER1 whole entry): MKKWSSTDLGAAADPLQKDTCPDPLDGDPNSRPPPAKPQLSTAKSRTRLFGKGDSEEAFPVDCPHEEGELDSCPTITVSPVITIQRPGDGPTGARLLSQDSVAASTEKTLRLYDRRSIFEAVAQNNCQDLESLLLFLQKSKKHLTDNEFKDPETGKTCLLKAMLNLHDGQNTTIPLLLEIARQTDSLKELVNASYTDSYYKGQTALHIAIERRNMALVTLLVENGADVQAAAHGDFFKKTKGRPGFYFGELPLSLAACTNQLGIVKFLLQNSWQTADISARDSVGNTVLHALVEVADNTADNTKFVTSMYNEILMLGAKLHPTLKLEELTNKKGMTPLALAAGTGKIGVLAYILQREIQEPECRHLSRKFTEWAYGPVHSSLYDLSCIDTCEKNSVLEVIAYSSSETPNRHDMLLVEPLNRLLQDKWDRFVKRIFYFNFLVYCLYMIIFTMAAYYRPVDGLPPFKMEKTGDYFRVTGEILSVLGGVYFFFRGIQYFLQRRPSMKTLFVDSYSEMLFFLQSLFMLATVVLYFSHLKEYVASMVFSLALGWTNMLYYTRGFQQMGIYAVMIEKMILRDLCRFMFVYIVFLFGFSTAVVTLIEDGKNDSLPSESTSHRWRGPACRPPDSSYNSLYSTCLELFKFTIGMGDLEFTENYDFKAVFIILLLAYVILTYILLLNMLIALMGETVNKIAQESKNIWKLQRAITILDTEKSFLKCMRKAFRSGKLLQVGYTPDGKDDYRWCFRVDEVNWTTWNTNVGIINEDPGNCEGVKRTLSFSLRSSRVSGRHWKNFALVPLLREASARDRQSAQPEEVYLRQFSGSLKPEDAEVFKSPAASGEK

Compound	inhibition (Mus musculus [1])	Ratio [2]	IC50 (HeLa)	IC50 (K562)	Activity (Mus musculus [3])	IC50 (MCF7)	Activity (Mus musculus [4])	LD50 at 168 h [5]	Activity (Mus musculus [6])
COc1cc(CNC(=O)CCCC/C=C/C(C)C)ccc1OCCCCCOc1ccc(C(N)=S)cc1	Active	1.87	46.4 µM	> 50 µM	Active	17.2 µM			
COc1cc(CNC(=O)CCCCCCC(C)C)ccc1OC(=O)CCC(=O)Oc1ccc(-c2cc(=S)ss2)cc1	Active	1.96	5.53 µM	5.93 µM	Active	2.56 µM			
COc1cc(CNC(=O)CCCCCCC(C)C)ccc1OCCCCCOc1ccc(C(N)=S)cc1	Active	1.76	> 50 µM	> 50 µM	Active	49.3 µM			
COc1cc(CNC(=O)CCCC/C=C/C(C)C)ccc1OCCCCOc1ccc(C(N)=S)cc1	Active	1.7	> 50 µM	> 50 µM	Active	49.8 µM			
COc1cc(CNC(=O)CCCCCCC(C)C)ccc1OCCCCCOc1ccc(-c2cc(=S)ss2)cc1	Active	1.69	> 50 µM	> 50 µM	Active	48.6 µM			
COc1cc(CNC(=O)CCCC/C=C/C(C)C)ccc1OC(=O)c1ccc(C(N)=S)cc1	Active	1.77	39.6 µM	> 50 µM	Active	39.4 µM	Non-Toxic		
COc1cc(CNC(=O)CCCCCCC(C)C)ccc1OCCCCOc1ccc(-c2cc(=S)ss2)cc1	Active	1.69	44.6 µM	> 50 µM	Active	49.5 µM			
COc1cc(CNC(=O)CCCCCCC(C)C)ccc1O [DIHYDROCAPSAICIN]		2	> 50 µM	> 50 µM		> 50 µM			
COc1cc(CNC(=O)CCCCCCC(C)C)ccc1OC(=O)c1ccc(C(N)=S)cc1	Active	1.69	> 50 µM	> 50 µM	Active	> 50 µM			
COc1cc(CNC(=O)CCCC/C=C/C(C)C)ccc1O [CAPSAICIN]			> 50 µM	49.4 µM		50 µM	Toxic	161 mg/kg	
COc1cc(CNC(=O)CCCC/C=C/C(C)C)ccc1OCCCCCOc1ccc(-c2cc(=S)ss2)cc1	Active	1.71	> 50 µM	> 50 µM	Active	> 50 µM			
COc1cc(CNC(=O)CCCC/C=C/C(C)C)ccc1OC(=O)CCC(=O)Oc1ccc(C(N)=S)cc1	Active	1.94	> 50 µM	> 50 µM	Active	> 50 µM	Non-Toxic		
COc1cc(CNC(=O)CCCCCCC(C)C)ccc1OCCCCOc1ccc(C(N)=S)cc1	Active	1.59	40.7 µM	> 50 µM	Active	4.99 µM			
COc1cc(CNC(=O)CCCCCCC(C)C)ccc1OC(=O)CCC(=O)Oc1ccc(C(N)=S)cc1	Active	1.87	> 50 µM		Active				
COc1cc(CNC(=O)CCCC/C=C/C(C)C)ccc1OCCCCOc1ccc(-c2cc(=S)ss2)cc1	Active	1.96	47.1 µM	> 50 µM	Active	36.4 µM	Non-Toxic		Active
COc1cc(CNC(=O)CCCC/C=C/C(C)C)ccc1OC(=O)CCC(=O)Oc1ccc(-c2cc(=S)ss2)cc1	Active	2.1	4.25 µM	4.45 µM	Active	2.12 µM	Non-Toxic		Active
COc1cccc2c1C(=O)c1c(O)c3c(c(O)c1C2=O)C[C@@](O)(C(=O)CO)C[C@@H]3O[C@H]1C[C@H](N)[C@H](O)[C@H](C)O1 [DOXORUBICIN]			0.451 µM	1.51 µM					
CC(C)(C)c1ccc(NC(=O)N2CCN(c3ncccc3Cl)CC2)cc1									Active
